# Source: US20100144853A1, “NOVEL COMBINED ADMINISTRATION” (priority 2008, published 2010)
# How the values were obtained:
# Assay type in all cases: in vitro ADME
# Lipase from Hog Pancreas [1] = experiment: Stability of COMPOUND A with Lipase, with and without COMPOUND B (Example 1); settings: 0.55 mg/mL (11 U/mL) Lipase
# Method: (a) FeSSIF (Fed State Simulated Intestinal Fluid) and phosphate buffered saline solution:
# (b) Stock A=drug solution (0.5 mg/mL):
# 5 mg of thioisobutyric acid S-(2-{[1-(2-ethyl-butyl)-cyclohexanecarbonyl]-amino}-phenyl)ester (COMPOUND A) were dissolved in 50 μL ethanol and 950 μL mixed micelles Soybean lecithin/Sodium glycocholate (158/97 mg/mL) in water were added. One part of the mixture was diluted with 9 parts of phosphate buffered saline solution at pH 6.5.
# (c) Stock B=esterase inhibitor solution (1.0 mg/mL)
# 5 mg 1-(3-hexyl-4-oxo-oxetan-2-yl)tridecan-2-yl 2-formyl-amino-4-methyl-pentanoate (COMPOUND B) were dissolved in 250 μL ethanol. 4.75 mL mixed micelles soybean lecithin/sodium glycocholate (30/80.6 mg/mL) were added to give a solution of 1 mg/mL COMPOUND B.
# (d) Stock C=Lipase in phosphate buffered saline solution (PBS) pH 6.5 (example given at 24 mg/mL, with a final enzyme activity of about 450 U/mL)
# (§1) 240 mg Lipase (Lipase from Hog Pancreas, 20.6 U/mg Lipase, CAS No. 9001-62-1, Fluka, Art. No. 62300) were weighed into a vial and dissolved by stirring in 10 mL phosphate buffered saline solution pH 6.5. Any undissolved material was removed by centrifugation during 5 min at 5000 rpm. The supernatant was used for the experiments and diluted with PBS to obtain the Lipase at the final concentration of 0.55 mg/mL.
# […] To this, 200 μL of drug solution (stock A) were injected at time zero. The mixture was incubated at 37° C., while mixing gently with a rotating shaker at about 2 rpm. At regular intervals 200 μL samples were taken and diluted immediately with 600 μL of isopropanol. The combined solution/suspension was centrifuged during 5 min at 3000 rpm and the concentration of COMPOUND A as well as its potential degradation products were determined in the supernatant by HPLC analysis.
# To obtain the value at time zero, 600 μL of isopropanol were added to 180 μL of a 0.55 mg/mL Lipase in a phosphate buffered saline solution to inhibit the enzymes followed by the addition of 20 μL of drug solution (stock A).
# Lipase from Hog Pancreas [2] = experiment: Stability of COMPOUND A with Lipase, Procedure B (premix of COMPOUND B and COMPOUND A, then Lipase); settings: 10 min, 0.55 mg/mL (11 U/mL) Lipase
# Method: as §1
# Procedure B (Premix of COMPOUND B and COMPOUND A, Followed by Addition of Lipase):
# 100 μL of drug solution (stock A) were mixed with 0, 12, 25 or 50 μL esterase inhibitor solution (stock B) and 100, 88, 75 or 50 μL of FeSSIF concentrate (Lecithin37.5 mM and Sodium taurocholate 150 mM) were added to make up 200 μL of a solution with COMPOUND B concentrations of 0, 12, 25 or 50 μg/mL. At time zero, 800 μL of Lipase in phosphate buffered saline solution (from stock C to obtain final enzyme concentrations of 0.55 mg/mL) were added. The reaction mixture was incubated at 37° C. and stopped after 10 minutes by diluting one part of the reaction mixture with 3 parts Isopropanol.
# [3] = Stability of COMPOUND A in human intestinal fluids, Procedure E (suspension, excess separated by centrifugation), fasted; settings: HIF-fasted
# Method: Fasted Intestinal Fluids: the fluids from 4 different subjects were collected with a naso-jejunal tube after fasting overnight and pooled.
# Procedure E (COMPOUND A and COMPOUND B in Suspension, Excess Compound Separated by Centrifugation):
# Stock J=COMPOUND B suspension (2 mg/mL)
# 100 μL of FeSSIF concentrate and 900 μL of pro-FeSSIF pH6.5 were added to 4 mg commercially available Orlistat formulation (Xenical®) containing 2 mg of lipase inhibitor 1-(3-hexyl-4-oxo-oxetan-2-yl)tridecan-2-yl 2-formyl-amino-4-methyl-pentanoate (COMPOUND B) in a vial and the formulation was dispersed by gently stirring during 15 min to obtain a fine homogenous suspension.
# 500 μL of freshly thawed intestinal fluids (fasted and stimulated state) were added to 1 mg of COMPOUND A in a 1 mL glass vial immediately followed by the addition of either 0, 10 or 20 μL of COMPOUND B suspension (stock J) corresponding to 0, 40 or 80 μg/mL of COMPOUND B. The amount of COMPOUND B was 0, 2% or 4% COMPOUND B relative to COMPOUND A. The mixture was incubated at 37° C. with gentle stirring. Samples of 90 μL were removed as function of time and centrifuged at 13′000 rpm (about 12′000×g) for 5 min. 50 μL of the supernatant was diluted with 150 μL isopropanol, centrifuged at 5′000 rpm for 5 min and the clear supernatant was analyzed by HPLC.
smiles,measurement,setting,value
"CCC(CC)CC1(C(=O)Nc2ccccc2SC(=O)C(C)C)CCCCC1 [COMPOUND A, thioisobutyric acid S-(2-{[1-(2-ethyl-butyl)-cyclohexanecarbonyl]-amino}-phenyl)ester]",Concentration of COMPOUND A,"Lipase from Hog Pancreas [1]; +100 μg/mL COMPOUND B, 5 min",48200 ng/mL
same,Concentration of COMPOUND A,"Lipase from Hog Pancreas [1]; +100 μg/mL COMPOUND B, 10 min",48200 ng/mL
same,Concentration of COMPOUND A,"Lipase from Hog Pancreas [1]; +100 μg/mL COMPOUND B, 15 min",48200 ng/mL
same,Concentration of COMPOUND A,"Lipase from Hog Pancreas [1]; +100 μg/mL COMPOUND B, 20 min",48000 ng/mL
same,Concentration of COMPOUND A,"Lipase from Hog Pancreas [1]; +100 μg/mL COMPOUND B, 30 min",48300 ng/mL
same,Concentration of COMPOUND A,"Lipase from Hog Pancreas [1]; +100 μg/mL COMPOUND B, 60 min",40100 ng/mL
same,Concentration of COMPOUND A,"Lipase from Hog Pancreas [1]; time 0 min (column +100 μg/mL COMPOUND B), theoretical 50 μg/mL",46900 ng/mL
same,Concentration of COMPOUND A,"Lipase from Hog Pancreas [1]; w/o COMPOUND B, 5 min",27200 ng/mL
same,Concentration of COMPOUND A,"Lipase from Hog Pancreas [1]; w/o COMPOUND B, 10 min",14700 ng/mL
same,Concentration of COMPOUND A,"Lipase from Hog Pancreas [1]; w/o COMPOUND B, 15 min",7300 ng/mL
same,Concentration of COMPOUND A,"Lipase from Hog Pancreas [1]; w/o COMPOUND B, 20 min",4100 ng/mL
same,Concentration of COMPOUND A,"Lipase from Hog Pancreas [1]; w/o COMPOUND B, 30 min",<100 ng/mL
same,Concentration of COMPOUND A,"Lipase from Hog Pancreas [1]; w/o COMPOUND B, 60 min",<100 ng/mL
same,Concentration of COMPOUND A,Lipase from Hog Pancreas [2]; COMPOUND B 0 μg/mL,23000 ng/mL
same,Concentration of COMPOUND A,Lipase from Hog Pancreas [2]; COMPOUND B 12 μg/mL,46400 ng/mL
same,Concentration of COMPOUND A,Lipase from Hog Pancreas [2]; COMPOUND B 25 μg/mL,46500 ng/mL
same,Concentration of COMPOUND A,Lipase from Hog Pancreas [2]; COMPOUND B 50 μg/mL,46100 ng/mL
same,Concentration of COMPOUND A,"[3]; with 40 μg/mL of COMPOUND B, 15 min",1120 ng/mL
same,Concentration of COMPOUND A,"[3]; with 40 μg/mL of COMPOUND B, 30 min",11750 ng/mL
same,Concentration of COMPOUND A,"[3]; with 40 μg/mL of COMPOUND B, 1 h",111050 ng/mL
same,Concentration of COMPOUND A,"[3]; with 40 μg/mL of COMPOUND B, 2 h",217350 ng/mL
same,Concentration of COMPOUND A,"[3]; with 40 μg/mL of COMPOUND B, 4 h",281660 ng/mL
same,Concentration of COMPOUND A,"[3]; with 80 μg/mL of COMPOUND B, 15 min",5620 ng/mL
same,Concentration of COMPOUND A,"[3]; with 80 μg/mL of COMPOUND B, 30 min",16360 ng/mL
same,Concentration of COMPOUND A,"[3]; with 80 μg/mL of COMPOUND B, 1 h",89600 ng/mL
same,Concentration of COMPOUND A,"[3]; with 80 μg/mL of COMPOUND B, 2 h",230340 ng/mL
same,Concentration of COMPOUND A,"[3]; with 80 μg/mL of COMPOUND B, 4 h",336000 ng/mL
same,Concentration of COMPOUND A,"[3]; without COMPOUND B, 15 min",1620 ng/mL
same,Concentration of COMPOUND A,"[3]; without COMPOUND B, 30 min",1860 ng/mL
same,Concentration of COMPOUND A,"[3]; without COMPOUND B, 1 h",490 ng/mL
same,Concentration of COMPOUND A,"[3]; without COMPOUND B, 2 h",490 ng/mL
same,Concentration of COMPOUND A,"[3]; without COMPOUND B, 4 h",490 ng/mL
